US9499537B2, “Antiviral pyrrolopyridine derivatives and method for preparing the same” (KOREA RESEARCH INSTITUTE OF CHEMICAL TECHNOLOGY, priority 2011, dated 2016)

system: MT-4 cells; assay: Cytotoxicity test in MT-4 cells (MTT method); format: cell-based; details: human
Description: In order to look into the HIV-1 inhibition effects of the compound of the present invention, an in vitro test for HIV-1 inhibition effects was carried out as follows according to a known method (H. Tanaka et al., J. Med. Chem., 1991, 34, 349). MT-4 cells were used as host cells, and the degree of the compound of the present invention inhibiting the cytotoxicity of the virus-infected MT-4 cells was investigated.
First, MT-4 cells were diffused at a concentration of 1×10^4 cell/well to a culture medium, and HIV-1 was inoculated so that the concentration was 500 TCI50 (concentration at which 50% of the cell is infected)/well. Immediately after the inoculation, the cell dispersion was transferred in 100 μL each to a flat microtiter plate in which the sample of the compound of the present invention was placed. The sample was incubated for approximately for 4 to 5 days at […], and the virus suppression effect was determined using an MTT method. In addition, the cytotoxicity was also determined by measuring the survivability of the experimentally virus-infected cells using an MTT method. As a comparative compound, azidothymidine (AZT) and raltegravir were used.

Row | SMILES | CC60 (μM) ** : concentration at 50% cell damage with respect to MT-4 cells
1 | Cc1nc2c(c(C)c(C)n2CCC#N)c(-c2ccc(Cl)cc2)c1[C@H](OC(C)(C)C)C(=O)O [Example 30, (S)-2-Tert-butoxy-2-(4-(4-chlorophenyl)-1-(2-cyanoethyl)-2,3,6-trimethyl-1H-pyrrolo[2,3-b]pyridin-5-yl)acetic acid] | 30.86 µM
2 | Cc1nc2c(c(C)c(C)n2CCC#N)c(-c2ccc(Cl)cc2)c1[C@@H](OC(C)(C)C)C(=O)O [Example 31, (R)-2-tert-butoxy-2-(4-(4-chlorophenyl)-1-(2-cyanoethyl)-2,3,6-trimethyl-1H-pyrrolo[2,3-b]pyridin-5-yl)acetic acid] | 86.73 µM
3 | CCn1c(C)c(C)c2c(-c3ccc(Cl)cc3)c([C@H](OC(C)(C)C)C(=O)O)c(C)nc21 [Example 32, (S)-2-Tert-butoxy-2-(4-(4-chlorophenyl)-1-(ethyl)-2,3,6-trimethyl-1H-pyrrolo[2,3-b]pyridin-5-yl)acetic acid] | 23.48 µM
4 | CCn1c(C)c(C)c2c(-c3ccc(Cl)cc3)c([C@@H](OC(C)(C)C)C(=O)O)c(C)nc21 [Example 33, (R)-2-tert-butoxy-2-(4-(4-chlorophenyl)-1-(ethyl)-2,3,6-trimethyl-1H-pyrrolo[2,3-b]pyridin-5-yl)acetic acid] | 25.5 µM
5 | Cc1nc2c(ccn2C)c(-c2ccc(Cl)cc2)c1[C@H](OC(C)(C)C)C(=O)O [Example 34, (S)-2-Tert-butoxy-2-(4-(4-chlorophenyl)-1,6-dimethyl-1H-pyrrolo[2,3-b]pyridin-5-yl)acetic acid] | 78 µM
6 | COc1cc(Cn2c(C)c(C)c3c(-c4ccc(Cl)cc4)c(C(OC(C)(C)C)C(=O)O)c(C)nc32)cc(Cl)n1 (stereo not drawn) [Example 35, 2-Tert-butoxy-2-(4-(4-chlorophenyl)-1-((2-chloro-6-methoxypyridin-4-yl)methyl)-2,3,6-trimethyl-1H-pyrrolo[2,3-b]pyridin-5-yl)acetic acid] | 14.86 µM
7 | Cc1nc2c(c(C)c(C)n2Cc2ccncc2)c(-c2ccc(Cl)cc2)c1[C@H](OC(C)(C)C)C(=O)O [Example 36, (S)-2-Tert-butoxy-2-(4-(4-chlorophenyl)-1-(pyridin-4-ylmethyl)-2,3,6-trimethyl-1H-pyrrolo[2,3-b]pyridin-5-yl)acetic acid] | 24.49 µM
8 | CCn1c(C)c(C)c2c(-c3ccccc3)c(C(OC(C)(C)C)C(=O)O)c(C)nc21 (stereo not drawn) [Example 37, 2-Tert-butoxy-2-(1-ethyl-2,3,6-trimethyl-4-phenyl-1H-pyrrolo[2,3-b]pyridin-5-yl)acetic acid] | 17 µM
9 | CCn1c(C)c(C)c2c(-c3ccc(C)cc3)c(C(OC(C)(C)C)C(=O)O)c(C)nc21 (stereo not drawn) [Example 38, 2-Tert-butoxy-2-(1-ethyl-2,3,6-trimethyl-4-(para-tolyl)-1H-pyrrolo[2,3-b]pyridin-5-yl)acetic acid] | 40.34 µM
10 | CCn1c(C)c(C)c2c(-c3ccc(F)cc3)c(C(OC(C)(C)C)C(=O)O)c(C)nc21 (stereo not drawn) [Example 39, 2-Tert-butoxy-2-(1-ethyl-4-(4-fluorophenyl)-2,3,6-trimethyl-1H-pyrrolo[2,3-b]pyridin-5-yl)acetic acid] | 78.47 µM
11 | CCn1c(C)c(C)c2c(-c3ccc(C#N)cc3)c(C(OC(C)(C)C)C(=O)O)c(C)nc21 (stereo not drawn) [Example 40, 2-Tert-butoxy-2-(4-(4-cyanophenyl)-1-ethyl-2,3,6-trimethyl-1H-pyrrolo[2,3-b]pyridin-5-yl)acetic acid] | 91.58 µM
12 | CCn1c(C)c(C)c2c(-c3ccc(OC)cc3)c(C(OC(C)(C)C)C(=O)O)c(C)nc21 (stereo not drawn) [Example 41, 2-(Tert-butoxy)-2-(1-ethyl-4-(4-methoxyphenyl)-2,3,6-trimethyl-1H-pyrrolo[2,3-b]pyridin-5-yl)acetic acid] | 31.49 µM
13 | Cc1nc2c(c(C)c(C)n2Cc2cccs2)c(-c2ccc(Cl)cc2)c1[C@H](OC(C)(C)C)C(=O)O [Example 42, (S)-2-(Tert-butoxy)-2-(4-(4-chlorophenyl)-2,3,6-trimethyl-1-(thiophen-2-ylmethyl)-1H-pyrrolo[2,3-b]pyridin-5-yl)acetic acid] | 20.54 µM
14 | Cc1nc2c(c(C)c(C)n2Cc2ccsc2)c(-c2ccc(Cl)cc2)c1[C@H](OC(C)(C)C)C(=O)O [Example 43, (S)-2-(Tert-butoxy)-2-(4-(4-chlorophenyl)-2,3,6-trimethyl-1-(thiophen-3-ylmethyl)-1H-pyrrolo[2,3-b]pyridin-5-yl)acetic acid] | 17.74 µM
15 | Cc1nc2c(c(C)c(C)n2Cc2ccco2)c(-c2ccc(Cl)cc2)c1[C@H](OC(C)(C)C)C(=O)O [Example 44, (S)-2-(Tert-butoxy)-2-(4-(4-chlorophenyl)-1-(furan-2-ylmethyl)-2,3,6-trimethyl-1H-pyrrolo[2,3-b]pyridin-5-yl)acetic acid] | 18.06 µM
16 | Cc1nc2c(c(C)c(C)n2CC2(C#N)CC2)c(-c2ccc(Cl)cc2)c1[C@H](OC(C)(C)C)C(=O)O [Example 47, (S)-2-(tert-butoxy)-2-(4-(4-chlorophenyl)-1-((1-cyanocyclopropyl)methyl)-2,3,6-trimethyl-1H-pyrrolo[2,3-b]pyridin-5-yl)acetic acid] | 16.64 µM
17 | Cc1nc2c(c(C)c(C)n2CC2CCC2)c(-c2ccc(Cl)cc2)c1[C@H](OC(C)(C)C)C(=O)O [Example 48, (S)-2-(Tert-butoxy)-2-(4-(4-chlorophenyl)-1-(cyclobutylmethyl)-2,3,6-trimethyl-1H-pyrrolo[2,3-b]pyridin-5-yl)acetic acid] | 14.22 µM
18 | Cc1nc2c(c(C)c(C)n2CC2CCCC2)c(-c2ccc(Cl)cc2)c1[C@H](OC(C)(C)C)C(=O)O [Example 49, (S)-2-(Tert-butoxy)-2-(4-(4-chlorophenyl)-1-(cyclopentylmethyl)-2,3,6-trimethyl-1H-pyrrolo[2,3-b]pyridin-5-yl)acetic acid] | 15.3 µM
19 | Cc1nc2c(c(C)c(C)n2CC2CCCCC2)c(-c2ccc(Cl)cc2)c1[C@H](OC(C)(C)C)C(=O)O [Example 50, (S)-2-(Tert-butoxy)-2-(4-(4-chlorophenyl)-1-(cyclohexylmethyl)-2,3,6-trimethyl-1H-pyrrolo[2,3-b]pyridin-5-yl)acetic acid] | 10.32 µM
20 | Cc1nc2c(c(C)c(C)n2CC(=O)N(C)C)c(-c2ccc(Cl)cc2)c1[C@H](OC(C)(C)C)C(=O)O [Example 51, (S)-2-(Tert-butoxy)-2-(4-(4-chlorophenyl)-1-(2-(dimethylamino)-2-oxoethyl)-2,3,6-trimethyl-1H-pyrrolo[2,3-b]pyridin-5-yl)acetic acid] | 96.68 µM
21 | Cc1nc2c(c(C)c(C)n2CC2(O)CC2)c(-c2ccc(Cl)cc2)c1[C@H](OC(C)(C)C)C(=O)O [Example 52] | 34.33 µM
22 | Cc1nc2c(c(C)c(C)n2Cc2cccnc2)c(-c2ccc(Cl)cc2)c1[C@H](OC(C)(C)C)C(=O)O [Example 53, (S)-2-(Tert-butoxy)-2-(4-(4-chlorophenyl)-2,3,6-trimethyl-1-(pyridin-3-ylmethyl)-1H-pyrrolo[2,3-b]pyridin-5-yl)acetic acid] | 53.33 µM
23 | Cc1nc2c(c(C)c(C)n2CCF)c(-c2ccc(Cl)cc2)c1[C@H](OC(C)(C)C)C(=O)O [Example 54, (S)-2-(Tert-butoxy)-2-(4-(4-chlorophenyl)-1-(2-fluoroethyl)-2,3,6-trimethyl-1H-pyrrolo[2,3-b]pyridin-5-yl)acetic acid] | 18.82 µM
24 | Cc1nc2c(c(C)c(C)n2Cc2cncnc2)c(-c2ccc(Cl)cc2)c1[C@H](OC(C)(C)C)C(=O)O [Example 55, (S)-2-(Tert-butoxy)-2-(4-(4-chlorophenyl)-2,3,6-trimethyl-1-(pyrimidin-5-ylmethyl)-1H-pyrrolo[2,3-b]pyridin-5-yl)acetic acid] | 64.73 µM
25 | Cc1nc2c(c(C)c(C)n2Cc2cocn2)c(-c2ccc(Cl)cc2)c1[C@H](OC(C)(C)C)C(=O)O [Example 56, (S)-2-(Tert-butoxy)-2-(4-(4-chlorophenyl)-2,3,6-trimethyl-1-(oxazol-4-ylmethyl)-1H-pyrrolo[2,3-b]pyridin-5-yl)acetic acid] | 24.56 µM
26 | Cc1nc2c(c(C)c(C)n2CC(=O)O)c(-c2ccc(Cl)cc2)c1[C@H](OC(C)(C)C)C(=O)O [Example 57, (S)-2-(Tert-butoxy)-2-(1-carboxymethyl)-(4-(4-chlorophenyl)-2,3,6-trimethyl-1H-pyrrolo[2,3-b]pyridin-5-yl)acetic acid] | >217.9 µM
27 | Cc1nc2c(c(C)c(C)n2CC(F)(F)F)c(-c2ccc(Cl)cc2)c1[C@H](OC(C)(C)C)C(=O)O [Example 59, (S)-2-(Tert-butoxy)-2-(4-(4-chlorophenyl)-2,3,6-trimethyl-1-(2,2,2-trifluoromethyl)-1H-pyrrolo[2,3-b]pyridin-5-yl)acetic acid] | 5.3 µM
